We go through 14 molecules from ChEMBL document CHEMBL3297740, “Thiazolidine-2,4-diones derivatives as PPAR-γ agonists: synthesis, molecular docking, in vitro and in vivo antidiabetic activity with hepatotoxicity risk evaluation and effect on PPAR-γ gene expression” (Bioorg Med Chem Lett, 2014).

Data set [1] has as its system Rattus norvegicus. Kind of data set: Antidiabetic activity in streptozotocin-induced Albino Wistar rat diabetic model assessed as decrease in blood glucose level at 36 mg/kg, po measured after 15 days by glucose oxidase method. On the set-up: dose 36 mg/kg. In kind it is functional, organism-based.
The species entered for data set [2] is Rattus norvegicus. Kind of data set: Reduction in streptozotocin-induced alkaline phosphatase level in Albino Wistar rat diabetic model. Format: functional, organism-based.
Data set [3] is filed under the species Rattus norvegicus. Description: Hepatotoxicity in streptozotocin-induced in Albino Wistar rat diabetic model assessed as hepatocyte swelling by Haematoxylin/Eosin staining-based microscopy. In kind it is toxicity, organism-based. The settings on record: hepatocytes.
The species entered for data set [4] is Rattus norvegicus. Description: Reduction in streptozotocin-induced aspartate aminotransferase level in Albino Wistar rat diabetic model. Format: functional, organism-based.
The species entered for data set [5] is Rattus norvegicus. Description: Toxicity in streptozotocin-induced in Albino Wistar rat diabetic model assessed as liver damage by Haematoxylin/Eosin staining-based microscopy. In kind it is organism-based. Conditions: in vivo.
The species entered for data set [6] is Rattus norvegicus. Kind of data set: Hepatotoxicity in streptozotocin-induced in Albino Wistar rat diabetic model assessed increase in sinusoidal dilatation by Haematoxylin/Eosin staining-based microscopy. Format: toxicity, organism-based. The settings on record: in vivo.
For data set [7], the species on record is Rattus norvegicus. Kind of data set: Hepatotoxicity in streptozotocin-induced in Albino Wistar rat diabetic model assessed as fatty changes in hepatocyte by Haematoxylin/Eosin staining-based microscopy. Format: toxicity, organism-based. Conditions: hepatocytes.
Data set [8] is filed under the species Rattus norvegicus. Kind of data set: Reduction in streptozotocin-induced alanine transaminase level in Albino Wistar rat diabetic model. Format: functional, organism-based.
The species entered for data set [9] is Rattus norvegicus. Kind of data set: Hepatotoxicity in streptozotocin-induced in Albino Wistar rat diabetic model assessed increase in portal triad Inflammation by Haematoxylin/Eosin staining-based microscopy. Format: toxicity, organism-based. Conditions: in vivo.
The species entered for data set [10] is Rattus norvegicus. Description: Toxicity in Albino Wistar rat assessed as change in body weight relative to control. In kind it is organism-based. Conditions: in vivo.
Data set [11] is filed under the species Rattus norvegicus. Description: Antidiabetic activity in Albino Wistar rat assessed as improvement in insulin resistance measured at 90 mins after insulin injection by insulin tolerance test. Format: functional, organism-based.
The test system of data set [12] is Rattus norvegicus. Kind of data set: Antidiabetic activity in streptozotocin-induced Albino Wistar rat diabetic model assessed as improvement in body weight at 36 mg/kg, po measured after 15 days by glucose oxidase method. Format: functional, organism-based. Also noted: dose 36 mg/kg.
The species entered for data set [13] is Rattus norvegicus. Kind of data set: Antidiabetic activity in Albino Wistar rat assessed as reduction of blood glucose level measured at 120 mins after glucose injection by oral glucose tolerance test. Format: functional, organism-based.

Activity calls are given as the source filed them. The rule behind the calls is not given here.

`Cc1ccc2c(c1)C(=O)C(CC1SC(=O)NC1=O)CO2` (stereo unspecified): the inhibition entry in the data set on Rattus norvegicus [1] is “Active”.
As to `COc1cccc2c1C(=O)C(CC1SC(=O)NC1=O)CO2` (stereo unspecified), the inhibition result in the data set with Rattus norvegicus [1] is “Active”.
Same read-out and setting: under `COc1ccc2c(c1)C(=O)C(CC1SC(=O)NC1=O)CO2` (stereo unspecified) stands “Active”.
Take `COc1ccc2occ(CC3SC(=O)NC3=O)c(=O)c2c1` (stereo unspecified): the inhibition entry in the data set on Rattus norvegicus [1] was “Active”. Besides, the outcome in the data set listed under Rattus norvegicus [2], in the data set listed under Rattus norvegicus [4] and in the data set filed under Rattus norvegicus [8] was Active. Moreover, the Activity entry in the data set filed under Rattus norvegicus [3], in the data set listed under Rattus norvegicus [5], in the data set filed under Rattus norvegicus [6], in the data set listed under Rattus norvegicus [7] and in the data set filed under Rattus norvegicus [9] was “Non-toxic” each time.
As for `O=C1NC(=O)C(Cc2coc3c(Cl)cc(Cl)cc3c2=O)S1` (stereo unspecified), in the data set on Rattus norvegicus [1], the inhibition result is “Active”. Moreover, the result in the data set listed under Rattus norvegicus [2], in the data set listed under Rattus norvegicus [4] and in the data set listed under Rattus norvegicus [8] was Active. For the same molecule, the Activity result in the data set listed under Rattus norvegicus [3] is “Non-toxic”; in the data set filed under Rattus norvegicus [5] it was “Toxic”; in the data set filed under Rattus norvegicus [6], “Toxic”; in the data set listed under Rattus norvegicus [7], “Non-toxic”; in the data set listed under Rattus norvegicus [9] it was “Non-toxic”.
Take `O=C1NC(=O)C(Cc2coc3ccccc3c2=O)S1` (stereo unspecified): the inhibition result with Rattus norvegicus [1] was “Active”.
In the case of `O=C1NC(=O)C(Cc2coc3ccc(Cl)cc3c2=O)S1` (stereo unspecified), the Activity entry in the data set listed under Rattus norvegicus [10], in the data set filed under Rattus norvegicus [3], in the data set filed under Rattus norvegicus [5], in the data set filed under Rattus norvegicus [6], in the data set filed under Rattus norvegicus [7] and in the data set listed under Rattus norvegicus [9] was “Non-toxic” throughout. Also, the result in the data set filed under Rattus norvegicus [11], in the data set listed under Rattus norvegicus [2], in the data set filed under Rattus norvegicus [4], in the data set with Rattus norvegicus [12] and in the data set listed under Rattus norvegicus [8] was Active. Also, the inhibition entry in the data set on Rattus norvegicus [1] and in the data set filed under Rattus norvegicus [13] was “Active” in each case.
`O=C1NC(=O)C(CC2COc3ccc(F)cc3C2=O)S1` (stereo unspecified): in the data set on Rattus norvegicus [1], the inhibition result was “Active”.
As for `O=C1NC(=O)C(Cc2coc3ccc(Br)cc3c2=O)S1` (stereo unspecified), the inhibition result in the data set on Rattus norvegicus [1] was “Active”. For the same molecule, the result in the data set listed under Rattus norvegicus [2], in the data set listed under Rattus norvegicus [4] and in the data set listed under Rattus norvegicus [8] was Active. In addition, the Activity entry in the data set filed under Rattus norvegicus [3] was “Non-toxic”; in the data set listed under Rattus norvegicus [5], “Toxic”; in the data set filed under Rattus norvegicus [6] it was “Toxic”; in the data set listed under Rattus norvegicus [7] it was “Non-toxic”; in the data set listed under Rattus norvegicus [9], “Non-toxic”.
Consider `CCc1ccc(CCOc2ccc(CC3SC(=O)NC3=O)cc2)nc1` (stereo unspecified) [PIOGLITAZONE], for which the Activity result in the data set filed under Rattus norvegicus [3] is “Non-toxic”; in the data set filed under Rattus norvegicus [6], “Toxic”; in the data set filed under Rattus norvegicus [7], “Non-toxic”; in the data set listed under Rattus norvegicus [9], “Non-toxic”.
For the molecule `O=C1NC(=O)C(CC2COc3c(Cl)cc(Cl)cc3C2=O)S1` (stereo unspecified), the inhibition entry with Rattus norvegicus [1] is “Active”.
For `O=C1NC(=O)C(Cc2coc3ccc(F)cc3c2=O)S1` (stereo unspecified), the inhibition entry with Rattus norvegicus [1] is “Active”. For the same molecule, the result in the data set listed under Rattus norvegicus [2], in the data set filed under Rattus norvegicus [4] and in the data set listed under Rattus norvegicus [8] was Active. The Activity result in the data set listed under Rattus norvegicus [3] is “Non-toxic”; in the data set filed under Rattus norvegicus [5], “Toxic”; in the data set listed under Rattus norvegicus [6], “Toxic”; in the data set filed under Rattus norvegicus [7], “Non-toxic”; in the data set filed under Rattus norvegicus [9], “Non-toxic”.
For the molecule `O=C1NC(=O)C(CC2COc3ccc(Br)cc3C2=O)S1` (stereo unspecified), the inhibition entry with Rattus norvegicus [1] is “Active”.
Same read-out and setting: next, `Cc1ccc2occ(CC3SC(=O)NC3=O)c(=O)c2c1` (stereo unspecified): “Active”.
